This is an account of results in US9809562B2, “NAT10 modulators for treating or preventing laminopathies, aging and cancer” (CAMBRIDGE ENTERPRISE LIMITED, priority 2014, dated 2017).

Assay [1] has as its target T1, NAT10 purified from HEK293 cells (Homo sapiens, UniProt Q9H0A0).
T1 construct: made in house; host or cells: HEK293 (transient transfection, anti-FLAG immunopurification, elution with triple-Flag peptide)
T1 sequence (Q9H0A0 1-1025): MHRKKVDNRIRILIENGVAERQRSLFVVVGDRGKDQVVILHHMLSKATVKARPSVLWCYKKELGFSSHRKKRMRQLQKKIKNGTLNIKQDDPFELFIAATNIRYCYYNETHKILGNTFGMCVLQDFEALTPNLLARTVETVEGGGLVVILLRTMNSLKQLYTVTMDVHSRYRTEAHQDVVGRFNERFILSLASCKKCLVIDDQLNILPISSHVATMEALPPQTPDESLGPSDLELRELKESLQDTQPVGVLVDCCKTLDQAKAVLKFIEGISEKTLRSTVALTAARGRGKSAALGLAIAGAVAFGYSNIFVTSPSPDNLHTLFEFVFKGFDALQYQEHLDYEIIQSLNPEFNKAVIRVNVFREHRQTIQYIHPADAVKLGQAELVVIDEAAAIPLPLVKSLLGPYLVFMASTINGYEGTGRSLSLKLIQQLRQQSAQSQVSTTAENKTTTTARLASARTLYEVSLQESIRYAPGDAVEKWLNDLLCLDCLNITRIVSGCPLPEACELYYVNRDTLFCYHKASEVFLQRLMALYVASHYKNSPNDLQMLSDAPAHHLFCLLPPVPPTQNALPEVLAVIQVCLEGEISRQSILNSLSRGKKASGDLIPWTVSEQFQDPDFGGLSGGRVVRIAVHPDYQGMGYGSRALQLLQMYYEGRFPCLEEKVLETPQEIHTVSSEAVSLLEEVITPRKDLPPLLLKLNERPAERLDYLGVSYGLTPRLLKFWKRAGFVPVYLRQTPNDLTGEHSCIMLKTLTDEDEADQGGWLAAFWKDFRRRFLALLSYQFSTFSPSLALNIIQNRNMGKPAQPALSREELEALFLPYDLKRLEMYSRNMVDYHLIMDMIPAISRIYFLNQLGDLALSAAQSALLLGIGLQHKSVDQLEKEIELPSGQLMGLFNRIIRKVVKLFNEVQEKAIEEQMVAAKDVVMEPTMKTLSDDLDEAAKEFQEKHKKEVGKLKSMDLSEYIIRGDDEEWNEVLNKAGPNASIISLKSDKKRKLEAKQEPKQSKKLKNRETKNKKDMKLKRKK
In words: Circular dichroism spectroscopy of purified NAT10. To be noted: titration, 10 μM FLAG-NAT10, concentration-dependent. In kind it is binding. The procedure: HEK293 cells were transiently transfected with NAT10 constructs and harvested after 48 hours in PBS. Cells were lysed for 5 minutes at room temperature in IP lysis buffer (20 mM Tris pH 7.5, 40 mM NaCl, 2 mM MgCl2, 0.5% NP-40) freshly supplemented with 50 U/ml benzonase and EDTA-free protease inhibitor cocktail (Roche). After this initial lysis step, NaCl concentration was adjusted to 450 mM and samples were incubated at 4° C. with rotation. Lysates were clarified by centrifugation (13,200 rpm, 20 minutes at 4° C.), and after recovery NaCl concentration was equilibrated to 150 mM. Lysates were used for immunoprecipitation reaction in IP buffer (25 mM Tris pH 7.5, 150 mM NaCl, 1.5 mM DTT, 10% glycerol, 0.5% NP-40) supplemented with protease inhibitors. Target proteins were captured with anti-FLAG antibody (M2, Sigma-Aldrich) coupled to protein A/G-Dynabeads (Life Sciences). Complexes were washed with IP buffer containing incrementally increasing amounts of NaCl (250 mM, 500 mM, and 1M). Following this, the immuno-complexes were washed in TBS containing gradually decreasing amounts on NaCl (1M, 500 mM, 250 mM, and 150 mM). […]
CD experiments were performed using a Chirascan Circular Dichroism Spectrophotometer (Applied Photophysics, UK). […] CD scans were recorded at 25° C. over the wavelength range of 180 to 350 nm with a 1 second response time, 1 nm pitch and 1.5-nm bandwidth. […]
(Circular dichroism is the unequal absorption of left and right circularly polarised light.)

Assay [2] has as its system cells (sub-cellular distribution). In words: Fluorescent labelling of clickable molecules (sub-cellular distribution). In kind it is cell-based. The following applies: 2 hours pre-incubation, Alexa fluor 488 Azide click. The procedure: Cells were pre-incubated with clickable molecules Compound 3 or Reference Compound A (1-Chloro-4-ethynilbenzene, purchased from Sigma-Aldrich) for 2 hours before being fixed and permeabilised as described above. Click reaction was prepared using Invitrogen Click-iT reagents with Alexa fluor 488 Azide and incubated with fixed cells for 1 hour in the dark. In case of co-labelling with another protein, the click reaction was performed before the antibody incubations.

Counter-ions that a name gives are not always drawn.

Take `Clc1ccc(-c2csc(NN=C3CCCC3)n2)cc1` [Compound 2, 4-(4-Chlorophenyl)-2-(2-cyclopentylidenehydrazinyl)thiazole Hydrochloride Salt]: the “NAT10 conformation, absolute molar ellipticity at 210 nm” value in assay [1] is on record as “clear increase in the absolute molar ellipticity”. With `C#CCN(N=C1CCCC1)c1nc(-c2ccc(Cl)cc2)cs1` [Compound 3, 4-(4-Chlorophenyl)-2-(2-cyclopentylidene-1-(prop-2-yn-1-yl)hydrazinyl)thiazole], in assay [2], the “sub-cellular distribution of fluorescently labelled molecule” value was “predominant accumulation of Compound 3 in nucleoli”.
